Counter-ions that a name gives are not always drawn. Like-named read-outs stand apart in the source and are kept apart here. Each block holds one compound with its values, some of them ahead of it.
Assays:
[1] = molecular target: stripped hemoglobin (Homo sapiens, UniProt P68871); details: pH 7.4, cited from earlier work
[2] = test system: whole blood; experiment: P50 of whole blood pre-incubated with effector (Hemox Analyzer); format: cell-based
Method: Whole blood was collected from one subject. The blood was stored in a Vacutainer with Solution A (ACD) and stored at 4-8° C.
Preparation of Effector Stock: Effector stock was prepared at 100-120 mM (Molal solution) using water or Bis-Tris Buffer. Effector characteristics prior to incubation were:
Incubation: Whole blood (75-300 μL) was incubated with 200 μL of effector at 37° C. for 5-10 min. (see Summary of Results below).
(§1) Washes: After incubation of whole blood with/without effector, blood cells were washed four times with Saline buffer or HBS (BSA) by centrifugal pelleting to remove exogenous effector and to evaluate hemolysis. After final centrifugation, pellet was not resuspended.
Blood Oxygen Dissociation Reading: Blood Oxygen Dissociation of samples were determined using a Hemox Analizer Model B (TCS Medical Products Company, New Hope, Pa.). The sample chamger contained:
10-20 μL Pelleted Blood Cells incubated with Effector
All readings were made at 36.7-37.2° C. and at pH 7.28-7.32. The P50s were calculated from the Dissociation Curves compared to same day control P50.

[3] = test system: red blood cells; experiment: hemolysis of red blood cells on incubation of whole blood with effector; format: cell-based
Method: as §1

[4] = 1-octanol/aqueous phase partition coefficients of IHP salts measured by 31P-NMR; format: physicochemical
Source text: Partition coefficients measurements. We synthesized a first series of IHP derivatives, ionically associated to different aliphatic and aromatic amines as well as amino-esters. Taking advantage of the 6 phosphate groups present in the IHP molecule, we measured, by ^31P-NMR, the partition coefficients of IHP salts between a 1-octanol phase and two different aqueous phases: water and human serum. In FIG. 11 are represented the structures of the different amines preassociated to IHP and the corresponding partition coefficients Kow and Kos. These coefficients are measured after equilibration, at a concentration of 30 mM, close to the typical concentration employed for the biological evaluations (the standard concentration used for O2-dissociation curve measurements is 22 mM).
Choice of the aqueous phases. […] To be even closer to physiological conditions, we pushed this investigation further by measuring 1-octanol/human serum partition coefficients Kos. […] Therefore, we only measured Kos's when Kow values were significant. To illustrate this observation we compared the partitions of 2 IHP derivatives, SV75 and SV131, in different aqueous systems: water, artificial serum (for its composition, see the Experimental section) without and with albumin, and human serum.
Human serum was purchased at the “Centre de Transfusion Sanguine de Strasbourg”. Artificial serum was based on blood composition : [Na^+]=140 mM, [Mg^2+]=1 mM, [K^+]=5 mM, [Ca^2+]=1 mM, [Cl^−]=106 mM, [PO4^3−]=1 mM, [SO4^2−]=0.5 mM, [CO3^2−]=30 mM, [Br^−]=0.5 mM, bovine serum albumin (fraction V, >98%) 30 g.l^−1, pH=7.41.
Partition coefficients. […] 1 ml of 1-octanol was then added and each sample was shaken at 36 rpm during 12 hours. The equilibrated biphasic solutions were centrifuged for 2 hours at 3000 rpm. 350 μl of the octanolic phase was first taken off with a syringe and put directly in the NMR tube. 350 μl of the aqueous phase was then taken off. ^31P-NMR spectra were performed on a Bruker AC-300 apparatus. An external standard (triphenylphosphine oxide, 60 mM in d6-DMSO) was placed inside the NMR tubes to allow both the locking process of the apparatus and an accurate integration of IHP peaks. Partition coefficients were determined as the ratio of IHP integrations, relative to the external standard, in the octanol and aqueous phases.

[5] = test system: whole blood; experiment: P50 shift on whole blood, first library (Hb-O2 dissociation curve); format: cell-based; details: 220 mOsM, control IHP sodium form, 37° C.
Method: In FIG. 14 the different IHP derivatives have been classified by amine types, the number of cations per IHP molecule as well as the reference number are indicated beside each amine drawings. The P50 shift values have to be compared to the control experiment (underlined), corresponding to a test performed in the same conditions but with IHP, sodium form. P50 values have been measured in Professor Nicolau's laboratory in Boston (bioassay conditions: 75 μl of whole blood was incubated 2 minutes with 300 μl of a 50 mM solution of IHP derivatives. The system was then washed and 20 μl were used for measurement of the Hb-O2 dissociation curve at 37° C.). See also FIGS. 15-17 for tables of P50 values at various osmolarities of whole blood, and free hemoglobin that has been pre-incubated with various ammonium salts of inositol hexaphosphate.

[6] = molecular target: Free Hemoglobin (Homo sapiens, UniProt P68871); experiment: P50 of free hemoglobin in the presence of effector; format: biochemical; details: fHb
Free Hemoglobin, sequence (P68871 2-147 limits assumed): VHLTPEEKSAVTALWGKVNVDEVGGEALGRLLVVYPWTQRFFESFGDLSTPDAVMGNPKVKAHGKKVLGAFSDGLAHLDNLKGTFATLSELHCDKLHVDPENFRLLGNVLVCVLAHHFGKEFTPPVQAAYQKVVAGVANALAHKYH
Free Hemoglobin, sequence (P69905 2-142 partner limits assumed): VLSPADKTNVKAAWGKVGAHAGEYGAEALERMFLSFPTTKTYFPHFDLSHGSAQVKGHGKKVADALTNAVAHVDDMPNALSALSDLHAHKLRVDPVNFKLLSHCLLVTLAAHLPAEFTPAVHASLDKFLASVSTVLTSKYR

[7] = 1-octanol/water, concentration of 30 mM
[8] = 0.25 umoles EFF, control P50 16 mmHg, 37° C.

stripped hemoglobin, sequence (P68871 2-147 limits assumed): as the sequence (P68871 2-147 limits assumed) above
stripped hemoglobin, sequence (P69905 2-142 partner limits assumed): as the sequence (P69905 2-142 partner limits assumed) above

Compound: O=C(O)C(COP(=O)(O)O)OP(=O)(O)O (stereo not shown) [2,3-Diphosphoglycerate]
half-saturation pressure P(O2) (½) of stripped hemoglobin ([1]; 25 C., stripped hemoglobin alone 4.3): 12.0 mm Hg
half-saturation pressure P(O2) (½) of stripped hemoglobin ([1]; 37 C., stripped hemoglobin alone 9.3): 23.7 mm Hg

Compound: NC1CCCCC1.NC1CCCCC1.NC1CCCCC1.NC1CCCCC1.NC1CCCCC1.NC1CCCCC1.NC1CCCCC1.NC1CCCCC1.NC1CCCCC1.O=P([O-])([O-])OC1C(OP(=O)([O-])O)C(OP(=O)(O)O)C(OP(=O)(O)O)C(OP(=O)(O)O)C1OP(=O)(O)O.[Na+].[Na+].[Na+] (stereo not shown) [ICP6, nona cyclohexylammonium tri sodium inositol hexaphosphate]
P50 EFF:WB ([2]; EFF 30 mM, EFF:WB 22 mM, 220 mOsM, pH 7.23, ratio 1:0.375, control WB 27.5, 37 C.): 39 mmHg

Compound: CCC(C)C(N)C(=O)OC(C)(C)C.CCC(C)C(N)C(=O)OC(C)(C)C.CCC(C)C(N)C(=O)OC(C)(C)C.CCC(C)C(N)C(=O)OC(C)(C)C.CCC(C)C(N)C(=O)OC(C)(C)C.CCC(C)C(N)C(=O)OC(C)(C)C.CCC(C)C(N)C(=O)OC(C)(C)C.CCC(C)C(N)C(=O)OC(C)(C)C.O=P(O)(O)OC1C(OP(=O)(O)O)C(OP(=O)(O)O)C(OP(=O)(O)O)C(OP(=O)(O)O)C1OP(=O)(O)O (stereo not shown) [SV57, Inositol hexaphosphate, octa isoleucine-tbuthyl-ester]
hemolysis of red blood cells ([3]; first library bioassay on whole blood): fast hemolysis

Koas (artificial serum with albumin) ([4]; 1-octanol/artificial serum with albumin, at 18 mM): 0.041
Koa (artificial serum without albumin) ([4]; 1-octanol/artificial serum without albumin, at 18 mM): 0.088
Kos (human serum) ([4]; 1-octanol/human serum, at 18 mM): 0.031
Kow (water) ([4]; 1-octanol/water, at 18 mM): 0.411
Compound: NC1CCCCCC1 [SV75, Inositol hexaphosphate, nona-cycloheptylammonium salt]

Kow [4, 7]: < 10^−3
Compound: NC1CCCC1.NC1CCCC1.NC1CCCC1.NC1CCCC1.NC1CCCC1.NC1CCCC1.NC1CCCC1.NC1CCCC1.NC1CCCC1.NC1CCCC1.NC1CCCC1.O=P(O)(O)OC1C(OP(=O)(O)O)C(OP(=O)(O)O)C(OP(=O)(O)O)C(OP(=O)(O)O)C1OP(=O)(O)O (stereo not shown) [SV78, Inositol hexaphosphate, undeca-cyclopentylammonium salt]

Compound: NC1CCCCC1.NC1CCCCC1.NC1CCCCC1.NC1CCCCC1.NC1CCCCC1.NC1CCCCC1.NC1CCCCC1.NC1CCCCC1.NC1CCCCC1.NC1CCCCC1.NC1CCCCC1.O=P(O)(O)OC1C(OP(=O)(O)O)C(OP(=O)(O)O)C(OP(=O)(O)O)C(OP(=O)(O)O)C1OP(=O)(O)O (stereo not shown) [SV81, Inositol hexaphosphate, undeca-cyclohexylammonium salt]
shift of the P50 value (compared to the control experiment) [5]: 50%

Compound: C1CCC(NCCN(CCNC2CCCCC2)CCNC2CCCCC2)CC1.C1CCC(NCCN(CCNC2CCCCC2)CCNC2CCCCC2)CC1.C1CCC(NCCN(CCNC2CCCCC2)CCNC2CCCCC2)CC1.O=P(O)(O)O[C@H]1[C@H](OP(=O)(O)O)[C@@H](OP(=O)(O)O)[C@H](OP(=O)(O)O)[C@@H](OP(=O)(O)O)[C@H]1OP(=O)(O)O [SV102, Inositol hexaphosphate, tris tri-(N-cyclohexyl-2-amino-ethyl)-ammonium salt]
P50 mmHg EFF:WB ([2]; effector 82 mOsM, EFF:WB 1:0.375, pH 7.2-7.3, control 41.5): 75.0 mmHg
P50 mmHg EFF:WB ([2]; effector 321 mOsM, EFF:WB 1:1.5, pH 7.2-7.3, control 40.5): 39.5 mmHg
P50 mmHg EFF (free hemoglobin) [6, 8]: 41.0 mmHg

Compound: C1CCCC(NCCN(CCNC2CCCCCC2)CCNC2CCCCCC2)CC1.C1CCCC(NCCN(CCNC2CCCCCC2)CCNC2CCCCCC2)CC1.C1CCCC(NCCN(CCNC2CCCCCC2)CCNC2CCCCCC2)CC1.O=P(O)(O)O[C@H]1[C@H](OP(=O)(O)O)[C@@H](OP(=O)(O)O)[C@H](OP(=O)(O)O)[C@@H](OP(=O)(O)O)[C@H]1OP(=O)(O)O [SV137, Inositol hexaphosphate, tris tri-(N-cycloheptyl-2-amino-ethyl)-ammonium salt]
Kos ([4]; 1-octanol/human serum, concentration of 30 mM): 0.64
Kow [4, 7]: 2.70
P50 mmHg EFF:WB ([2]; effector 268 mOsM, EFF:WB 1:0.375, pH 7.2-7.3, control 29.5): 32.0 mmHg

Compound: C1CCCC(NCCCN2CCN(CCCNC3CCCCCCC3)CC2)CCC1.C1CCCC(NCCCN2CCN(CCCNC3CCCCCCC3)CC2)CCC1.C1CCCC(NCCCN2CCN(CCCNC3CCCCCCC3)CC2)CCC1.O=P(O)(O)O[C@H]1[C@H](OP(=O)(O)O)[C@@H](OP(=O)(O)O)[C@H](OP(=O)(O)O)[C@@H](OP(=O)(O)O)[C@H]1OP(=O)(O)O [SV141, Inositol hexaphosphate, tri N,N′-di-(3-(N-cyclooctyl-amino)-propyl)-piperazinium salt]
P50 mmHg EFF:WB ([2]; effector 221 mOsM, EFF:WB 1:1.5, pH 7.1-7.2, control 25): 25.0 mmHg
P50 mmHg EFF (free hemoglobin) ([6]; ratio 1:1 (2.5 mM:2.5 mM), pH 7.1-7.2, control P50 10.5 mmHg): 22.0 mmHg
lysis of whole blood incubated with effector ([3]; WB, EFF:WB 1:0.375, no sufficient RBC pellet): Lyses

Compound: NC1CCCCC1N.NC1CCCCC1N.NC1CCCCC1N.NC1CCCCC1N.NC1CCCCC1N.O=P(O)(O)O[C@H]1[C@H](OP(=O)(O)O)[C@@H](OP(=O)(O)O)[C@H](OP(=O)(O)O)[C@@H](OP(=O)(O)O)[C@H]1OP(=O)(O)O [SV 92, Inositol hexaphosphate, penta (±)-(trans)-1,2-cyclohexyldiammonium salt]
P50 mmHg EFF:WB ([2]; effector 84 mOsM, EFF:WB 1:0.375, pH 7.2-7.3, control 41.4): 58.5 mmHg
P50 mmHg EFF:WB ([2]; effector 336 mOsM, EFF:WB 1:1.5, pH 7.2-7.3, control 40.5): 38.7 mmHg
P50 mmHg EFF (free hemoglobin) [6, 8]: 45.0 mmHg

Compound: C1CCC(N2CCCCC2)CC1.C1CCC(N2CCCCC2)CC1.C1CCC(N2CCCCC2)CC1.C1CCC(N2CCCCC2)CC1.C1CCC(N2CCCCC2)CC1.C1CCC(N2CCCCC2)CC1.C1CCC(N2CCCCC2)CC1.C1CCC(N2CCCCC2)CC1.C1CCC(N2CCCCC2)CC1.O=P(O)(O)O[C@H]1[C@H](OP(=O)(O)O)[C@@H](OP(=O)(O)O)[C@H](OP(=O)(O)O)[C@@H](OP(=O)(O)O)[C@H]1OP(=O)(O)O [SV 97, Inositol hexaphosphate, nona N-cyclohexyl-piperidinium salt]
P50 mmHg EFF:WB ([2]; effector 111 mOsM, EFF:WB 1:0.375, pH 7.2-7.3, control 41.5): 49.7 mmHg
P50 mmHg EFF:WB ([2]; effector 343 mOsM, EFF:WB 1:1.5, pH 7.2-7.3, control 40.5): 40.0 mmHg
P50 mmHg EFF (free hemoglobin) [6, 8]: 46.7 mmHg

equivalents of cyclooctylammoniums required to reach a Kos value equal to 1 ([4]; constant IHP concentration 22 mM, human serum/octanol, IHP sodium salt in serum, ammonium hydrochloride in organic phase): 8 equivalents
Compound: NC1CCCCCCC1 [cyclooctylammoniums]

P50 mmHg EFF (free hemoglobin) [6, 8]: 41.7 mmHg
Compound: Inositol hexaphosphate, octa menthyl-1,8-diammonium salt [SV 89]

P50 mmHg EFF (free hemoglobin) [6, 8]: 41.0 mmHg
Compound: Inositol hexaphosphate, penta cyclohexyl-(1,3-bismethylammonium) salt [SV 94]

Source: patent US6610702B2, “Ammonium salts of inositol hexaphosphate, and uses thereof” (GMP Oxycell, Inc., priority 2000, dated 2003)
